This note sets out measurements from patent publication US12171759B1, “Methods and uses for treating anhedonia” (Xenon Pharmaceuticals Inc., priority 2021, dated 2024).

“And” between values parts separate entries of the source, which are not always exact repeats. Identical values can stand only once. “Also recorded” adds a separate entry of the source.

In the test the test system is male Long Evans rats. In words: Progressive ratio (PR) schedule of reinforcement for food (Progressive Ratio Test, PRT). To be noted: AVG. The class given is in vivo, rat. The arrangement: Sess. Duration: unit not given here. The method, then: The objective of this study was to test the effect of Compound A (1, 3, or 8 mg/kg, p.o.) on motivation as measured by rats responding for food under a progressive ratio (PR) schedule of reinforcement. Test measures included the total number of lever presses, and number of rewards (food pellets) acquired (break point).
The progressive ratio (PR) task is a cross species translational approach used as measure of motivational performance including as a measure of anhedonia (see, e.g., Hodos W., Science 1961, 134:943-944; Spierling et al., Physiol Behav. 2017, 177:99-106; Radke et al., Pharmacol Biochem Behav. 2015, 129:51-55; Hauser et al., Hormones and Behavior 2009, 56:364-375; Merali et al., Psychopharmacology 2003, 165:413-418; Marchese et al., Int J Neuropsychopharmacology 2013, 16:1611-1621; Karlsson et al., Hippocampus 2018, 28 (7): 512-522: Strauss et al., Schizophr Res. 2016, 170 (1): 198-204; and Gunthorpe et al., Epilepsia 2012, 53 (3): 412-424). In rodent species, the basic test design involves training subjects to lever press for a food reward (45 mg Bioserve pellets) under a schedule in which the number of responses required to achieve a pellet increased for successive reinforcers. The present study used a progression ratio derived from the equation ratio=[5×e^(0.2×reinforcer #)−5], and was as follows: 2, 4, 6, 9, 12, 15, 20, 25, 32, 40, 50, 62, 77, 95, 118, 145, 178, etc. Rats were therefore required to lever press a progressively increasing number of times to gain each successive reward, until reaching a break point, i.e., not meeting the schedule requirement. […] This provided a quantitative measurement of effort the animal would expend for the given reinforcer, which was interpreted as a measure of motivation. Based on the amount of food acquired during a typical test session (e.g., a break point of 10-12, corresponds to 0.45-0.54 g food), responding is limited by the amount of effort the animal is willing to expend for a single food pellet, rather than factors such as satiety.
Rats may be categorized based on differences in PR breakpoint, i.e., “low” and “high” responders. […] Motivational deficits are commonly seen in anhedonia associated with many neuropsychological disorders, such as depression, dementia, and schizophrenia (Lactôt et al., Alzheimer's and Dementia 2017, 13:84-100) and efficacy in treating “low” responder rats is indicative of efficacy in treating more significant or severe anhedonia.
The primary purpose of this proposal was to evaluate the effect of Compound A on motivational performance of Male Long Evans rats under a progressive ratio schedule. A large (N=32) cohort of rats were used and the effect of Compound A was investigated both in all rats, and also a “low” responder subgroup, based on the low tertile (N=11) cohort recorded over 5 days baseline responding prior to study commencement.
Dosage form: Compound A was suspended in 0.5% CMC-Na and 0.1% Tween 80 in purified water and sonicated until fully dissolved. Drug was administered at a volume of 10 mL/kg, orally.
Doses tested: 1, 3, 8 mg/kg.
Pretreatment time: 120 minutes.
Dosage form: D-Amp was suspended in 0.9% saline and sonicated until fully dissolved. Drug was administered at a volume of 1 mL/kg, intraperitoneally.
Pretreatment time: 10 minutes.
Test System: Thirty-two (32) experimentally non-naïve male Long Evans rats were included in the study.
Housing and Management of Test System: Animals were singly housed and maintained on a restricted diet regimen, in which they were fed approximately 18-20 g of standard laboratory chow once per day following the completion of study procedures (between 16:00 h and 18:00 h). Water was available ad-libitum, excluding during training/testing sessions. Animals were maintained on a 12 h/12 h light/dark cycle with all testing conducted during the animals' light cycle. All animal use procedures were performed in accordance with the principles of the Canadian Council on Animal Care (CCAC). […]

Setting [1] is: High responder subgroup (N=11), 1 mg/kg p.o.
Where [2] appears, read: High responder subgroup (N=11), 3 mg/kg p.o.
The mark [3] stands for this setting: High responder subgroup (N=11), 8 mg/kg p.o.
Where [4] appears, read: Low responder subgroup (N=11), 1 mg/kg p.o.
[5] abbreviates: Low responder subgroup (N=11), 3 mg/kg p.o.
Where [6] appears, read: Low responder subgroup (N=11), 3 mg/kg p.o., listed as Cpmd A.
Where [7] appears, read: Low responder subgroup (N=11), 8 mg/kg p.o.
The mark [8] stands for this setting: Low responder subgroup (N=11), 8 mg/kg p.o., listed as Cpmd A.
Setting [9] is: all rats (N = 32), 1 mg/kg p.o., 120 min pretreatment.
Where [10] appears, read: all rats (N = 32), 3 mg/kg p.o., 120 min pretreatment.
Setting [11] is: all rats (N = 32), 3 mg/kg p.o., 120 min pretreatment, listed as Cpmd A.
Where [12] appears, read: all rats (N = 32), 8 mg/kg p.o., 120 min pretreatment.
[13] abbreviates: all rats (N = 32), 8 mg/kg p.o., 120 min pretreatment, listed as Cpmd A.
The mark [14] stands for this setting: High responder subgroup (N=11), 0.6 mg/kg i.p.
[15] abbreviates: Low responder subgroup (N=11), 0.6 mg/kg i.p.
Setting [16] is: all rats (N = 32), 0.6 mg/kg i.p., 10 min pretreatment.

`Cc1cc(N2CCc3cc(F)ccc3C2)cc(C)c1NC(=O)CC(C)(C)C` [Compound A, N-[4-(6-fluoro-3,4-dihydro-1H-isoquinolin-2-yl)-2,6-dimethylphenyl]-3,3-dimethylbutanamide]: the “Lever Press” value by setting is: under setting [1], 707.5; under setting [2], 623.9; under setting [3], 700.0; under setting [4], 141.5; under setting [5], “selectively increase; also recorded: statistical significance”; under setting [6], 272.7. For the same molecule, the “Lever Press” value reads like this: under setting [7], “selectively increase; also recorded: statistical significance”; under setting [8], 258.0; under setting [9], 392.4; under setting [10], “significant increase; also recorded: significantly increasing; also recorded: statistical significance”; under setting [11], 439.3; under setting [12], “significant increase; also recorded: significantly increasing; also recorded: statistical significance”. In addition, under setting [13], the “Lever Press” value was 479.8. For the same molecule, the “Rewards (break point)” value was 14.6 under setting [1]; 14.3 under setting [2]; 14.6 under setting [3]; 8.2 under setting [4]; “selectively increase; also recorded: statistical significance” under setting [5]; 10.7 under setting [6]. The “Rewards (break point)” value reads like this: under setting [7], “selectively increase; also recorded: statistical significance”; under setting [8], 10.5; under setting [9], 11.5; under setting [10], “significant increase; also recorded: significantly increasing; also recorded: statistical significance”; under setting [11], 12.5; under setting [12], “significant increase; also recorded: significantly increasing; also recorded: statistical significance”. Further, the “Rewards (break point)” value under setting [13] is 12.8. Further, the “Sess. Duration” value was determined as 21.2 under setting [1]; 24.3 under setting [2]; 20.8 under setting [3]; 15.5 under setting [4]; 23.2 under setting [5]; 22.6 under setting [7]. Besides, the “Sess. Duration” value came out at 16.9 under setting [9], 22.6 under setting [10] and 21.1 under setting [12].
Regarding `C[C@H](N)Cc1ccccc1` [D-Amphetamine, reference compound], under setting [14], the “Rewards (break point)” value is 17.5±0.9 and 17.5; the “Sess. Duration” value was 52.4. Besides, under setting [15], the “Rewards (break point)” value was 12.2±1.2 and 12.2; the “Sess. Duration” value came out at 44.5. Under setting [16], the “Lever Press” value was 893+131 and 893.0; the “Rewards (break point)” value is 14.7 ± 0.7 and 14.7; the “Sess. Duration” value was 44.8.
